Patent publication US10077258B2, “Substituted pyrimidine compounds as phosphatidylinositol 3-kinase delta inhibitor and use thereof” (NANJING SANHOME PHARMACEUTICAL CO., LTD., priority 2015, dated 2018)

What was measured:
PI3Kγ = target: T1, PI3Kγ (Homo sapiens, UniProt P48736); assay: In vitro kinase activity (LabChip EZ Reader mobility shift), PI3Kγ; assay type: biochemical; conditions: kinase subtype PI3Kγ (p110γ)
T1 construct: purchased Invitrogen PR8641C
Protocol: (§1) Compounds: the compounds prepared in above examples of the present invention, each of which was prepared to a concentration of 10 mM in DMSO and diluted to […], 100 nM, 10 nM, 1 nM, 0.1 nM, 0.01 nM successively.
(§2) Reagents: PI3Kα (p110α(p85a), purchased from Invitrogen, Cat.No. PV4788; PIK3Cδ (p110δ/p85a), purchased from Millipore, Cat.No. 14-604-K; PIK3Cβ (p110β), purchased from Millipore, Cat.No. 14-603-K; PIK3Cγ (pp110γ), purchased from Invitrogen, Cat.No. PR8641C; DMSO, purchased from Sigma; EDTA, purchased from Sigma; 1× kinase buffer (50 mM HEPES, pH 7.5, 0.0015% Brij-35, 10 mM MgCl2, 2 mM DTT), which was prepared before use; termination solution (100 mM HEPES, pH 7.5, 0.015% Brij-35, 0.2% Coating Reagent#3, 50 mM EDTA), which was prepared before use.
(§3) Instruments: LabChip EZ Reader purchased from Caliper, USA.
(§4) 2.1 10 μl solution of each concentration of each compound was placed into 96-well plate and 90 μl of 1× kinase buffer was added. DMSO control group and control group without kinase activity were set up, which all contained 10 μl DMSO and 90 μl of 1× kinase buffer. Each group was mixed well at room temperature for 10 min, and then 5 μl of each group was transferred to a 384-well plate.
(§5) 2.2 Kinases were dissolved in 1× kinase buffer to prepare a 2.5× kinase solution. 10 μl of 2.5× kinase solution was transferred to the 384-well plate containing compounds of different concentrations. 10 μl of 2.5× kinase solution was added to DMSO control group and 10 μl of 1× kinase buffer without kinase was added to control group without kinase activity. The plate was incubated at room temperature for 10 min.
(§6) 2.3 ATP and the polypeptide labeled with FAM were dissolved in 1× kinase buffer to prepare 2.5× substrate solution. Then 10 μl of 2.5× substrate solution was transferred to the 384-well plate and incubated at 28° C. for 1 h.
(§7) 2.4 25 μl of termination solution was added to each well to terminate the reaction.
(§8) 2.5 The plate was placed on the LabChip EZ Reader to read the data of conversion rate and inhibitory rate (1%) was calculated according to formula: I %=(Max−Com)/(Max−Min)×100, wherein Max was the conversion rate of DMSO control group, Min was the conversion rate of control group without kinase activity, Com was the conversion rate of compound treatment group. IC50 was fitted by XLfit processing of the data.

PI3Kβ = target: T2, PI3Kβ (Homo sapiens, UniProt P42338); assay: In vitro kinase activity (LabChip EZ Reader mobility shift), PI3Kβ; assay type: biochemical; conditions: kinase subtype PI3Kβ (p110β)
T2 construct: purchased Millipore 14-603-K
Protocol: as §1, §2, §3, §4, §5, §6, §7, §8

SU-DHL-6 lymphoma cells = assay: In vitro cell activity, CellTiter-Glo cell viability, SU-DHL-6; assay type: cell-based; conditions: Homo sapiens, SU-DHL-6 lymphoma cell line, 72 h
Protocol: (§9) Compounds: the compounds prepared in above examples of the present invention, each of which was prepared to a concentration of 10 mM in DMSO and diluted 3 times to 20000.00 nM, 6666.67 nM, 2222.22 nM, 740.74 nM, 246.91 nM, 27.43 nM, 9.14 nM, 3.05 nM successively.
(§10) The lymphoma cell lines SU-DHL-5 and SU-DHL-6 were purchased from the American Type Culture Collection (ATCC).
(§11) Reagents: PRMI-1640, purchased from Invitrogen (USA); FBS, purchased from Invitrogen (USA); EDTA, purchased from Sigma (USA); CellTiter-Glo® Luminescent Cell Viability Assay Kit, purchased from Progema (USA); Backseal membrane, purchased from Perkin Elmer (USA).
(§12) The cells were thawed in a 37° C. water bath and then transferred to 15 ml preheated medium. The cells were centrifuged at 1000 rpm for 5 min and the medium was discarded. The cells were resuspended in 15 ml fresh medium and transferred to T75 culture flask and incubated in an incubator at 37° C. with 5% CO2. The medium was replaced with fresh medium 24 h later.
(§13) The resuscitated cells above were transferred to a 50 ml sterile centrifuge tube and centrifuged at 1000 rpm for 5 min. The medium was discarded, and the cells were dispersed uniformly and counted. The appropriate cell concentration was adjusted in 15 ml fresh medium and added to T75 culture flask. The flask was incubated in an incubator at 37° C. with 5% CO2.
When the cells in the T75 culture flask grew to 1×10^5˜1×10^6 cells/ml, the cells were resuspended with fresh medium (RPMI-1640+20% FBS) and counted. […] 10 min later, the Assay plate was attached at the bottom by Backseal membrane and placed on Envison to detect the fluorescence reading. Cell survive (%) was calculated according to the formula: cell survive (%)=(Com−Min)/(Max−Min), wherein Max was the reading of solvent control group, Min was the reading of control group without cells, and Com was the reading of compound treatment group.

PI3Kα = target: T3, PI3Kα (Homo sapiens, UniProt P42336); assay: In vitro kinase activity (LabChip EZ Reader mobility shift), PI3Kα; assay type: biochemical; conditions: kinase subtype PI3Kα (p110α/p85a)
T3 construct: purchased Invitrogen PV4788
Protocol: as §1, §2, §3, §4, §5, §6, §7, §8

PI3Kδ = target: T4, PI3Kδ (Homo sapiens, UniProt O00329); assay: In vitro kinase activity (LabChip EZ Reader mobility shift), PI3Kδ; assay type: biochemical; conditions: kinase subtype PI3Kδ (p110δ/p85a)
T4 construct: purchased Millipore 14-604-K
Protocol: as §1, §2, §3, §4, §5, §6, §7, §8

SU-DHL-5 lymphoma cells = assay: In vitro cell activity, CellTiter-Glo cell viability, SU-DHL-5; assay type: cell-based; conditions: Homo sapiens, SU-DHL-5 lymphoma cell line, 72 h
Protocol: as §9, §10, §11, §12, §13
When the cells in the T75 culture flask grew to 1×10^5˜1×10^6 cells/ml, the cells were resuspended with fresh medium (RPMI-1640+20% FBS) and counted. The resuspended cells were adjusted to the following eight concentrations: 1×10^4 cells/ml, 2×10^4 cells/ml, 3×10^4 cells/ml, 5×10^4 cells/ml, 8×10^4 cells/ml, 1×10^5 cells/ml, 1.5×10^5 cells/ml, and 2×10^5 cells/ml. The above cell suspensions were added to 96-well cell culture plate, 100 μl each well (1×10^3 cells/ml, 2×10^3 cells/ml, 3×10^3 cells/ml, 5×10^3 cells/ml, 8×10^3 cells/ml, 1×10^4 cells/ml, 1.5×10^4 cells/ml, and 2×10^4 cells/ml, respectively). Each concentration was done double in three plates. 72 h later, 100 μl CellTiter-Glo® Luminescent Cell Viability Assay buffer was added to test wells and shaken gently. 10 min later, the Assay plate was attached at the bottom by Backseal membrane and placed on Envison to detect the fluorescence reading. Cell survive (%) was calculated according to the formula: cell survive (%)=(Com−Min)/(Max−Min), wherein Max was the reading of solvent control group, Min was the reading of control group without cells, and Com was the reading of compound treatment group.

T2 sequence (P42338 whole entry): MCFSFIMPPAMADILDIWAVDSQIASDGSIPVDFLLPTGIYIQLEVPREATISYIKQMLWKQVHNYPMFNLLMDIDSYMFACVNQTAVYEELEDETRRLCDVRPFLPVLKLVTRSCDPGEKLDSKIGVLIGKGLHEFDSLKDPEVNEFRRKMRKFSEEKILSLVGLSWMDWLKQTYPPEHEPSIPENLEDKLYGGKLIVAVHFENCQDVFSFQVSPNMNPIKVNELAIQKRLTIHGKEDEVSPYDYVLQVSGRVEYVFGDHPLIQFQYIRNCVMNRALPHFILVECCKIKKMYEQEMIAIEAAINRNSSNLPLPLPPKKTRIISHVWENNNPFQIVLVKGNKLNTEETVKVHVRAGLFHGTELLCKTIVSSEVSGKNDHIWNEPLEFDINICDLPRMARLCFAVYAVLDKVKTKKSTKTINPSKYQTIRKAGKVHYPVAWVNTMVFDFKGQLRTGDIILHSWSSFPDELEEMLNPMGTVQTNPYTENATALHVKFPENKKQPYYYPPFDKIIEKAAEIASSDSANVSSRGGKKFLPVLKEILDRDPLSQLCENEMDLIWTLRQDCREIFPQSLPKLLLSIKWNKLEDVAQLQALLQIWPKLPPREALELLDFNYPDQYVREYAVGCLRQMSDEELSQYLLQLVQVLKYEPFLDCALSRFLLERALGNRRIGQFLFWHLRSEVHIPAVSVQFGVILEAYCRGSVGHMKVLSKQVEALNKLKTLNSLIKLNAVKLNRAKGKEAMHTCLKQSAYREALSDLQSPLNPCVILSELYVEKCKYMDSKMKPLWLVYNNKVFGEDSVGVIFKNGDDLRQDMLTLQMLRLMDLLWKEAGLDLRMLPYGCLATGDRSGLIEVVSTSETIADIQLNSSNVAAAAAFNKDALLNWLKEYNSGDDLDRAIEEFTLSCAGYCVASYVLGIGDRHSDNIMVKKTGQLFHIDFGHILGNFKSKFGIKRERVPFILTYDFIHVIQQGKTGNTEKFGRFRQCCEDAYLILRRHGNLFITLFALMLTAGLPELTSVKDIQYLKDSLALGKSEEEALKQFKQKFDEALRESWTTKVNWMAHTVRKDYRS
T2 sequence (P27986 whole entry partner): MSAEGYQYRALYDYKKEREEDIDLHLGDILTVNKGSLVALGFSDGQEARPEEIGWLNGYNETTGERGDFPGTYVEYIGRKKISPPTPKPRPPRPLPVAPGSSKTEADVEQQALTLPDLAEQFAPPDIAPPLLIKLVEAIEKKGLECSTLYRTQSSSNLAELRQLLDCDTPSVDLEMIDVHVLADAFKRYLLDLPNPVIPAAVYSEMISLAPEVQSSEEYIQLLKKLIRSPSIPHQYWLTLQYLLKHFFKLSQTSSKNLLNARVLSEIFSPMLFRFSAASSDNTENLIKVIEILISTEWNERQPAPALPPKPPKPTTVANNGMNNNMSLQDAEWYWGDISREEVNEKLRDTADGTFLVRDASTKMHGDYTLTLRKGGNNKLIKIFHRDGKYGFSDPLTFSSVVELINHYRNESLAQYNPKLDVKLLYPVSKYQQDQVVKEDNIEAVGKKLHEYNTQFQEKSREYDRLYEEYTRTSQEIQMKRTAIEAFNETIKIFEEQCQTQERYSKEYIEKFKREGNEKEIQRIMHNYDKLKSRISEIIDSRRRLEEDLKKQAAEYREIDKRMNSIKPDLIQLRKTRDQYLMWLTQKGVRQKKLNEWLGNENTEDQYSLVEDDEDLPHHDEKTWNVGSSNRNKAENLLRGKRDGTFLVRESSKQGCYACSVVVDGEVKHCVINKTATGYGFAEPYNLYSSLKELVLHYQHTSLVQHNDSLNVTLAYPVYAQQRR
T1 sequence (P48736 whole entry): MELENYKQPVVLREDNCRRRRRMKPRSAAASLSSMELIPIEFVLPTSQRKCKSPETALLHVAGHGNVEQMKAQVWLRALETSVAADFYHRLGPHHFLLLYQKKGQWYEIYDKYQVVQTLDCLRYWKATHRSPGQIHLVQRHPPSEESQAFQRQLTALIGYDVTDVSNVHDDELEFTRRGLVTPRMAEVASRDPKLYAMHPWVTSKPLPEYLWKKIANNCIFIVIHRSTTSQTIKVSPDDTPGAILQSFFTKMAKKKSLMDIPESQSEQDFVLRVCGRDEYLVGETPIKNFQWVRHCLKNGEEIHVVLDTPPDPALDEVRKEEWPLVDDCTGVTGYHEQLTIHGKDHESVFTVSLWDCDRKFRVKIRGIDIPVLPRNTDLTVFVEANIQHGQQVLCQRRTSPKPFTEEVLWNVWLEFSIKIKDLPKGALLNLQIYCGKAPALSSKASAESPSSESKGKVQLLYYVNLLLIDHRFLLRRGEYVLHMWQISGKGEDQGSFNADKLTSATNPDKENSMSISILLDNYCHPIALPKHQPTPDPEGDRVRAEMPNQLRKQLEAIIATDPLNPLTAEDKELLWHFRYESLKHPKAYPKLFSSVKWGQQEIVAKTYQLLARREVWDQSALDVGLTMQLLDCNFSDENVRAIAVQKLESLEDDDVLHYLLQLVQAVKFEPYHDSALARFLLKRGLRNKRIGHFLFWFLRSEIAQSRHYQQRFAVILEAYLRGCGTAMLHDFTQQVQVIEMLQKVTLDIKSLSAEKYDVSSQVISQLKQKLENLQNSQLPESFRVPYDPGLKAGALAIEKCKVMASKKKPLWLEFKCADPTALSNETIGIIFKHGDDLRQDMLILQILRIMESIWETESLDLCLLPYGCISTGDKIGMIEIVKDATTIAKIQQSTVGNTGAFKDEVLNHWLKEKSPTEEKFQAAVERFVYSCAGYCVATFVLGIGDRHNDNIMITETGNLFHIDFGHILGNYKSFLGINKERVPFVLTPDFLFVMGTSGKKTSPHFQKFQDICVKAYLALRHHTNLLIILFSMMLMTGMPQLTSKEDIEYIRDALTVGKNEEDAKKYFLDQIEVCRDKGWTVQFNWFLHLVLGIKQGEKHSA
T3 sequence (P42336 whole entry): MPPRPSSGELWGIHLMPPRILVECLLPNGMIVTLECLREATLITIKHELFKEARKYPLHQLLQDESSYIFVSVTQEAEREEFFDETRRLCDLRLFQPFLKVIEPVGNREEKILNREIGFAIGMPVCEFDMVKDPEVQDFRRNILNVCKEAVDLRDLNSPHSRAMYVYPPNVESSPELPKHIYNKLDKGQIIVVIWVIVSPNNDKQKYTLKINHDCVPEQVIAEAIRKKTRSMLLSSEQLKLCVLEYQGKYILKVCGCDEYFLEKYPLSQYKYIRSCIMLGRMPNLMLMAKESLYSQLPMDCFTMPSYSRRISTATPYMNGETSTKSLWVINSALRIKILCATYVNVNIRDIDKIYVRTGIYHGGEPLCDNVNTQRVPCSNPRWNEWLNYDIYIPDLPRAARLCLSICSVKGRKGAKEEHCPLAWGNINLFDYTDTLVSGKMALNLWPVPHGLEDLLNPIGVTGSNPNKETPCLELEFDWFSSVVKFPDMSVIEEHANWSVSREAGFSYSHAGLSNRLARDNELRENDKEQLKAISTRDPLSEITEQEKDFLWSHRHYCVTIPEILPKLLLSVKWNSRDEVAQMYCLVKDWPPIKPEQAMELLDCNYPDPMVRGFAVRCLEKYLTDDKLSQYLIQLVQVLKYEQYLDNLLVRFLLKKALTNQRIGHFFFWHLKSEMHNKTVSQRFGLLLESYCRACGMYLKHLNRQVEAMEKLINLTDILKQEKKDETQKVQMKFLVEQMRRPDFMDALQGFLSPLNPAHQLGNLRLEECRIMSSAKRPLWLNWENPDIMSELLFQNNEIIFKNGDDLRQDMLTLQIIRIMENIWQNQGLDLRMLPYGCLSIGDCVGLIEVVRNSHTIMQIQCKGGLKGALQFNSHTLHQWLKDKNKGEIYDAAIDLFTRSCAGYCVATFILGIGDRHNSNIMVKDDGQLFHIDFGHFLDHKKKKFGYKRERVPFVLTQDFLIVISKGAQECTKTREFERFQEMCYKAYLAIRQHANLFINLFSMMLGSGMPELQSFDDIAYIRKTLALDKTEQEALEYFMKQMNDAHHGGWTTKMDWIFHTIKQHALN
T3 sequence (P27986 whole entry partner): as the sequence (P27986 whole entry partner) above
T4 sequence (O00329 whole entry): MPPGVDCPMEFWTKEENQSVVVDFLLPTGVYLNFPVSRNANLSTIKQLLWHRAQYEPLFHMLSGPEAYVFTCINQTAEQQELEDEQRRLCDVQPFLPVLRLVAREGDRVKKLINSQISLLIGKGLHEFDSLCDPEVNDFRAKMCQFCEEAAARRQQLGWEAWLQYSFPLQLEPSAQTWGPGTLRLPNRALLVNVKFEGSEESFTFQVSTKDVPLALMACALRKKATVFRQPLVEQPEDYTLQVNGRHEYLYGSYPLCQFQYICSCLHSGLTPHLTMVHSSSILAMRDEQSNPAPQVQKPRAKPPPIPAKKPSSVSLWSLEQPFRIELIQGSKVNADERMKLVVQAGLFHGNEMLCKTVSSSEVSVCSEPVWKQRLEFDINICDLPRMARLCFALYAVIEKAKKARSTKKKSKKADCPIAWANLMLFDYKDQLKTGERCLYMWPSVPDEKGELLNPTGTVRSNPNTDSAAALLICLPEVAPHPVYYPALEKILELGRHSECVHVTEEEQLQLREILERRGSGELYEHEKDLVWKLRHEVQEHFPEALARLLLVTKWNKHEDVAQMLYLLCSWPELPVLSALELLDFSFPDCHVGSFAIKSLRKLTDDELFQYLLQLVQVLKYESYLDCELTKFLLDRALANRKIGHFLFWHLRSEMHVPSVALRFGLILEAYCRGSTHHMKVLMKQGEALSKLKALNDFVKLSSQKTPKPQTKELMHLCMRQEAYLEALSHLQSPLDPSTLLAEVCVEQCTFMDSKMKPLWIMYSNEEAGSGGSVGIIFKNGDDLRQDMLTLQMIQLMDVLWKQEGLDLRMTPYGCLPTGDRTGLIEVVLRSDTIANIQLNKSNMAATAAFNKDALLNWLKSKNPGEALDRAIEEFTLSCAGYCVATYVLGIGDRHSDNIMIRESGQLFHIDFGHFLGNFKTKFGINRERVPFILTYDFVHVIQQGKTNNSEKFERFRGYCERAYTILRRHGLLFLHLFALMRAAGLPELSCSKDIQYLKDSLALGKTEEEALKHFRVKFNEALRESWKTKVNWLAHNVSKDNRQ
T4 sequence (P27986 whole entry partner): as the sequence (P27986 whole entry partner) above

IC50 (PI3Kγ) [nM]	IC50 (PI3Kβ) [nM]	IC50 (SU-DHL-6 lymphoma cells) [µM]	IC50 (PI3Kα) [nM]	IC50 (PI3Kδ) [nM]	IC50 (SU-DHL-5 lymphoma cells) [µM]	Structure (SMILES)
905	546	0.16	> 1000	3.2	4.63	N#Cc1c(N)ncnc1NCc1c(-c2ccccc2)[nH]c2c(Cl)cccc2c1=O [Example 14, 4-Amino-5-cyano-6-(((8-chloro-4-oxo-2-phenyl-1,4-dihydroquinolin-3-yl)methyl)amino)pyrimidine]
83	546	0.014	> 1000	9.2	1.41	CC(Nc1nc(N)nc(N)c1C#N)c1c(-c2ccccc2)oc2ccccc2c1=O (stereo not drawn) [Example 4, 2,4-Diamino-5-cyano-6-(1-(4-oxo-2-phenyl-4H-chromen-3-yl)ethylamino) pyrimidine]
441	569	0.04	1070	4.4	0.81	CC(Nc1ncnc(N)c1C#N)c1c(-c2ccccc2)[nH]c2ccccc2c1=O (stereo not drawn) [Example 10, 4-Amino-5-cyano-6-((1-(4-oxo-2-phenyl-1,4-dihydroquinolin-3-yl)ethyl)amino) pyrimidine]
